Data set [1] in a line: Selectivity index, ratio of CC50 for cytotoxicity in BALB/c mouse splenocytes to EC50 for immunosuppressive activity in BALB/c mouse splenocytes assessed as reduction in LPS-induced mouse B-lymphocytes proliferation. The data set is classed as toxicity, cell-based. Conditions: read-out: Ratio CC50/EC50.
The test system of data set [2] is Splenocyte. Put plainly: Immunosuppressive activity in BALB/c mouse splenocytes assessed as reduction in LPS-induced mouse B-lymphocytes proliferation incubated for 48 hrs by MTT assay. The data set is classed as functional, cell-based.
A short description of data set [3]: Cytotoxicity against BALB/c mouse Splenocyte assessed as reduction in cell viability incubated for 48 hrs by MTT assay. It is filed as toxicity, cell-based. Conditions: splenocytes.
Data set [4] can be described thus: Selectivity index, ratio of CC50 for cytotoxicity in BALB/c mouse splenocytes to EC50 for immunosuppressive activity in BALB/c mouse splenocytes assessed as reduction in ConA-induced mouse T-lymphocytes proliferation. The data set is classed as toxicity, cell-based. To be noted: read-out: Ratio CC50/EC50.
The test system of data set [5] is Splenocyte. The experiment in a line: Immunosuppressive activity in BALB/c mouse splenocyte assessed as reduction in ConA-induced mouse T-lymphocytes proliferation incubated for 48 hrs by MTT assay. The data set is classed as functional, cell-based. (Tetrazolium dyes change colour on reduction, which living cells bring about.)
Data set [6] can be described thus: Cytotoxicity against human HEp-2 cells assessed as reduction in cell viability incubated for 6 days by CellTiter-Glo assay. To be noted: time 6 day. The data set is classed as toxicity, cell-based. (ATP-based viability assays read luminescence as a measure of living cells.)
Data set [7] can be described thus: Selectivity index, ratio of CC50 for cytotoxicity against MDCK cells to EC50 for antiviral activity against Influenza A virus A/PR/8 (H1N1) infected in MDCK cells. The data set is classed as toxicity, cell-based. To be noted: dog, read-out: Ratio CC50/EC50.
For the next data set, the system named is Influenza A virus. Put plainly: Antiviral activity against Influenza A virus A/PR/8 (H1N1) infected in MDCK cells assessed as inhibition of viral growth incubated for 48 hrs by indirect immunofluorescence assay. The data set is classed as functional, organism-based.
Data set [8] is described as follows: Selectivity index, ratio of CC50 for cytotoxicity against human HEp-2 cells to EC50 for antiviral activity against Respiratory syncytial virus infected in human HEp-2 cells. The data set is classed as toxicity, cell-based. To be noted: read-out: Ratio CC50/EC50.
Data set [9] is described as follows: Cytotoxicity against MDCK cells assessed as reduction in cell viability incubated for 48 hrs by CellTiter-Glo assay. It is filed as toxicity, cell-based, Canis lupus familiaris. To be noted: dog.
Data set [10] relates to Respiratory syncytial virus. The experiment in a line: Antiviral activity against Respiratory syncytial virus infected in human HEp-2 cells assessed as inhibition of virus-induced cytopathic effect measured after 6 days by CellTiter-Glo assay. The data set is classed as functional, organism-based. To be noted: HEp-2, 144 h.
For a further data set, the system named is L02. The experiment in a line: Cytotoxicity against human L02 cells assessed as inhibition of cell growth by MTT assay. The data set is classed as toxicity, cell-based.
Data set [11] is described as follows: Cytotoxicity against African green monkey Vero cells incubated for 48 hrs by DAPI staining based assay. The data set is classed as toxicity, cell-based. To be noted: chlorocebus sabaeus.
Data set [12] can be described thus: Selectivity index, ratio of CC50 for cytotoxicity against African green monkey Vero cells to EC50 for antiviral activity against Dengue virus 3 infected in african green monkey Vero cells. The data set is classed as toxicity, cell-based. Conditions: read-out: Ratio CC50/EC50.
A further data set concerns dengue virus type 3. The experiment in a line: Antiviral activity against Dengue virus 3 infected in african green monkey Vero cells assessed as reduction in viral protein expression incubated for 48 hrs by indirect immunofluorescence assay. It is filed as functional, organism-based.
Another data set deals with HT-29. Put plainly: Cytotoxicity against human HT-29 cells assessed as inhibition of cell growth by MTT assay. The data set is classed as functional, cell-based.
In a further data set the test system is MCF7. Put plainly: Cytotoxicity against human MCF7 cells assessed as inhibition of cell growth by MTT assay. The data set is classed as functional, cell-based.
The next data set has as its system HeLa. Put plainly: Cytotoxicity against human HeLa cells assessed as inhibition of cell growth by MTT assay. The data set is classed as functional, cell-based.
In a further data set the test system is A549. Put plainly: Cytotoxicity against human A549 cells assessed as inhibition of cell growth by MTT assay. The data set is classed as functional, cell-based.
The test system of a further data set is HCT-116. The experiment in a line: Cytotoxicity against human HCT-116 cells assessed as inhibition of cell growth by MTT assay. The data set is classed as functional, cell-based.

Active and inactive are the calls of the source. No cut-off for these calls is given here.

Consider ten molecules from ChEMBL document CHEMBL5226374, “Peniandranoids A-E: Meroterpenoids with Antiviral and Immunosuppressive Activity from a Penicillium sp” (J Nat Prod, 2023).

By EC50 is commonly meant the concentration giving half of the maximal effect. As a reminder, the CC50 is the concentration that lowers cell viability or growth by half. Take `CC/C=C/C=C/[C@@]1(C)OC(C[C@@H](C)[C@]2(C)C(=O)[C@]3(C)C(C)=C[C@H]4[C@]5(C=O)CC[C@H](OC(C)=O)C(C)(C)[C@H]5CC[C@]4(C)[C@]3(C(=O)OC)C2=O)=C(C(=O)OC)C1=O`: the selectivity ratio in data set [1] is 3.5; in data set [4] it was 1.1. Also, the EC50 came out at 7.5 µM in the data set on Splenocyte [2] and 23 µM with Splenocyte [5]. In data set [3], the CC50 at 48 h was 26 µM.

For the molecule `NC(=O)c1ncn([C@@H]2O[C@H](CO)[C@@H](O)[C@H]2O)n1` [RIBAVIRIN], the CC50 at 144 h in data set [6] was 95 µM. Moreover, the selectivity ratio in data set [7] is greater than 71; in data set [8], 18. In addition, the values for the EC50 (in the data set on Influenza A virus; in [10]) were 4.2 µM and 5.4 µM, respectively. For the same molecule, the CC50 at 48 h in [9] was greater than 300 µM.

For `COC(=O)[C@@]12C(=O)[C@](C)(Cc3c(O)c(C)cc(C(C)=O)c3O)C(=O)[C@]1(C)C(C)=C[C@H]1[C@]3(C=O)CC[C@H](OC(C)=O)C(C)(C)[C@H]3CC[C@@]12C`, the EC50 with Splenocyte [2] was greater than 50 µM; in the data set with Splenocyte [5], 19 µM; in the data set with Influenza A virus, 19 mg/L; in the data set with dengue virus type 3, greater than 100 mg/L. Further, the half-maximal cytotoxic concentration (CC50) at 48 h was greater than 50 µM in data set [3], 73 mg/L in data set [11] and greater than 500 mg/L in data set [9]. Also, in the data set on L02, the Activity entry is “Non-Toxic”. In addition, the selectivity ratio in [4] is greater than 2.6; in data set [12] it was less than 1; in [7] it was greater than 26. In addition, the CC50 at 144 h in [6] is 43 mg/L. Besides, the result with HT-29, with MCF7, with HeLa, with A549 and in the data set with HCT-116 was inactive.

Take `COc1c(C)c2c(c(O)c1C/C=C(\C)CCC(=O)OCCN1CCOCC1)C(=O)OC2` [MYCOPHENOLATE MOFETIL]: the EC50 in the data set on Splenocyte [2] was found to be 0.48 µM.

Consider `COC(=O)[C@@]12C(=O)[C@](C)(Cc3c(O)c(C)cc(C(C)=O)c3O)C(=O)[C@]1(C)C(C)=C[C@H]1[C@]3(CO)CC[C@H](OC(C)=O)C(C)(C)[C@H]3CC[C@@]12C`, for which the selectivity ratio in [1] was greater than 1. The EC50 with Splenocyte [2] was 50 µM; in the data set on Splenocyte [5], greater than 50 µM. Further, in data set [3], the 50% cytotoxic concentration (CC50) at 48 h is greater than 50 µM. Besides, in the data set with L02, the Activity result is “Non-Toxic”. Besides, the outcome in the data set on HT-29, in the data set on MCF7, with HeLa, in the data set with A549 and in the data set on HCT-116 was inactive.

Turning to `COC(=O)[C@@]12C(=O)[C@](C)(C(=O)c3cc(OC)c(O)c(O)c3C(C)=O)C(=O)[C@]1(C)C(C)=C[C@H]1[C@]3(C)CC[C@H](OC(C)=O)C(C)(C)[C@H]3CC[C@@]12C`, the selectivity ratio in data set [1] was determined as 2.4; in [4] it was 1.9. Moreover, the results for the EC50 in the data set with Splenocyte [2] and in the data set with Splenocyte [5] were 8.8 µM and 11 µM, respectively. For the same molecule, in [3], the CC50 at 48 h amounted to 21 µM. The Activity result with L02 is reported as “Non-Toxic”. Moreover, the outcome in the data set with HT-29, in the data set with MCF7, in the data set on HeLa, in the data set on A549 and in the data set with HCT-116 was inactive.

Take `CC/C=C/C=C/[C@@]1(C)OC(C[C@H](C)[C@]2(C)C(=O)[C@]3(C)C(C)=C[C@H]4[C@]5(C=O)CC[C@H](OC(C)=O)C(C)(C)[C@H]5CC[C@]4(C)[C@]3(C(=O)OC)C2=O)=C(C(=O)OC)C1=O`: the selectivity ratio in [1] and in data set [4] was 2.2 in each case. The EC50 with Splenocyte [2] and with Splenocyte [5] was 8.5 µM throughout. In addition, the CC50 at 48 h in data set [3] came out at 19 µM.

With `COC(=O)C1=C(C[C@@H](C)[C@]2(C)C(=O)[C@]3(C)C(C)=C[C@H]4[C@]5(C=O)CC[C@H](OC(C)=O)C(C)(C)[C@H]5CC[C@]4(C)[C@]3(C(=O)OC)C2=O)O[C@](C)(/C=C/C=C/[C@H](C)O)C1=O`, the selectivity ratio in data set [1] is greater than 4.2; in data set [4] it was greater than 1.9. Also, the values for the EC50 in the data set on Splenocyte [2] and in the data set on Splenocyte [5] were 12 µM and 27 µM, respectively. The half-maximal cytotoxic concentration (CC50) at 48 h in [3] is greater than 50 µM. Moreover, the Activity entry in the data set on L02 is “Non-Toxic”. The outcome in the data set on HT-29, in the data set with MCF7, with HeLa, with A549 and in the data set with HCT-116 was inactive.

In the case of `COC(=O)[C@@]12C(=O)[C@](C)(C(=O)c3cc(OC)c(O)c(O)c3C(C)=O)C(=O)[C@]1(C)C(C)=C[C@H]1[C@]3(C=O)CC[C@H](OC(C)=O)C(C)(C)[C@H]3CC[C@@]12C`, the selectivity ratio worked out at 1.9 in data set [1], 1.9 in data set [4] and 8.1 in data set [7]. Also, the EC50 in the data set on Splenocyte [2] worked out at 23 µM; in the data set with Splenocyte [5] it was 23 µM; in the data set on Influenza A virus, 14 mg/L. Also, the half-maximal cytotoxic concentration (CC50) at 48 h worked out at 44 µM in [3] and 114 mg/L in data set [9]. Moreover, the Activity entry in the data set on L02 is “Non-Toxic”. Further, the result with HT-29, in the data set on MCF7, with HeLa, in the data set with A549 and in the data set on HCT-116 was inactive.

On to `C#C[C@@]1(O)[C@H](O)[C@@H](CO)O[C@H]1n1ccc2c(N)ncnc21`, for which, in [11], half-maximal cytotoxicity (CC50 at 48 h) was put at 74 µM. The selectivity ratio in [12] was found to be 67. For the same molecule, the EC50 in the data set with dengue virus type 3 amounted to 1.1 µM.
